# Measurements taken from ChEMBL document CHEMBL1201862, “PubChem BioAssay data set” (2004).
# “And” between values parts separate entries of the source, which are not always exact repeats. Identical values can stand only once. The source made the active and inactive calls.
# What was measured:
# HEK293 [1] = experiment: NOD1 signaling inhibitors, primary screen, cell-based, luminescence, uHTS (AID 1578); assay type: functional; conditions: Homo sapiens
# HEK293 [2] = experiment: cells; assay type: functional, cell-based; conditions: Homo sapiens
# HEK293 [3] = experiment: cells; assay type: functional, cell-based; conditions: Homo sapiens; remark: listed apart in the source
# [4] = target: Nucleotide-binding oligomerization domain-containing protein 2 (Homo sapiens, UniProt Q9HC29); experiment: NOD2 signaling inhibitors, cell-based, luminescence, uHTS, HEK293 (AID 1566); assay type: functional
# Sequence of Nucleotide-binding oligomerization domain-containing protein 2 (Q9HC29 whole entry, the tested form may be a part): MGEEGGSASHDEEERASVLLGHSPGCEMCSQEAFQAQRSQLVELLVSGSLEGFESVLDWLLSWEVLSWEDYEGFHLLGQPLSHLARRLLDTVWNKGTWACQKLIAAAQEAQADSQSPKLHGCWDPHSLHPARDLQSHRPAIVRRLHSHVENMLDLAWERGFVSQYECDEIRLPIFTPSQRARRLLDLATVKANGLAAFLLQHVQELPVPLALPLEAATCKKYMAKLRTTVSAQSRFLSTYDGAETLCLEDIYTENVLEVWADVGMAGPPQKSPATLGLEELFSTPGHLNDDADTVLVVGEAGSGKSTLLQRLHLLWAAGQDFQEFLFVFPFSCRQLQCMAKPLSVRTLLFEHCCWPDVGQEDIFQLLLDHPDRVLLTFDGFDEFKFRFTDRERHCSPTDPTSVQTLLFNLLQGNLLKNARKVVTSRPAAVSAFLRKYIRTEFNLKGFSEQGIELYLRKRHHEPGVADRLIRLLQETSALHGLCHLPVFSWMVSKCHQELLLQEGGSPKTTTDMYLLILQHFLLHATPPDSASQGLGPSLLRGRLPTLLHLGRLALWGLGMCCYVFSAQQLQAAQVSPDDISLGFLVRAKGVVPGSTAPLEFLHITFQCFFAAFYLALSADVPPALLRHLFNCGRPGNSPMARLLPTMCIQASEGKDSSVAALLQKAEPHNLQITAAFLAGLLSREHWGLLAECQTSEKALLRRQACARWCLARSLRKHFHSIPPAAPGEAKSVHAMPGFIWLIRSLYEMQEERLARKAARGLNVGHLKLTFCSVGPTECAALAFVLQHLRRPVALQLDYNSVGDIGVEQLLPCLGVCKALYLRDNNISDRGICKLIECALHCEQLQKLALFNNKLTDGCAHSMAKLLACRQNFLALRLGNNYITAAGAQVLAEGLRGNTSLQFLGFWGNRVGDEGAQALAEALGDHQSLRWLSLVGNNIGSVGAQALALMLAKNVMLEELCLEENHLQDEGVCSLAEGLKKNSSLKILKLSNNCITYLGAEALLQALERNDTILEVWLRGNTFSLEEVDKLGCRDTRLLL
# HEK293 [5] = experiment: NOD2 signaling inhibitors in MDP-stimulated cells, cell-based, uHTS, luminescence (AID 2001); assay type: functional; conditions: Homo sapiens
# HEK293 [6] = experiment: cells; assay type: functional, cell-based; conditions: Homo sapiens; remark: listed apart in the source
# Tumor necrosis factor = Tumor necrosis factor (Homo sapiens, UniProt P01375); experiment: TNFa-triggered NF-kB activation inhibitors, SAR follow-up, cell-based, revised (AID 2337); assay type: functional
# Sequence of Tumor necrosis factor (P01375 whole entry, the tested form may be a part): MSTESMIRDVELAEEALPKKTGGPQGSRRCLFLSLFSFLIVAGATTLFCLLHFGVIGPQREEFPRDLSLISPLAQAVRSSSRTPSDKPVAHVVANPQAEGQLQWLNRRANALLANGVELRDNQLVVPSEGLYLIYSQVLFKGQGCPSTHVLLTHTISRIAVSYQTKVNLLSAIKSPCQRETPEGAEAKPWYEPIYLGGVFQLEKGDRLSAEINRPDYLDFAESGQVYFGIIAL
# [7] = target: T1, Nucleotide-binding oligomerization domain-containing protein 1 (Homo sapiens, UniProt Q9Y239); experiment: NOD1 signaling inhibitors, SAR follow-up, revised (AID 2333); assay type: functional
# T1 sequence (Q9Y239 whole entry): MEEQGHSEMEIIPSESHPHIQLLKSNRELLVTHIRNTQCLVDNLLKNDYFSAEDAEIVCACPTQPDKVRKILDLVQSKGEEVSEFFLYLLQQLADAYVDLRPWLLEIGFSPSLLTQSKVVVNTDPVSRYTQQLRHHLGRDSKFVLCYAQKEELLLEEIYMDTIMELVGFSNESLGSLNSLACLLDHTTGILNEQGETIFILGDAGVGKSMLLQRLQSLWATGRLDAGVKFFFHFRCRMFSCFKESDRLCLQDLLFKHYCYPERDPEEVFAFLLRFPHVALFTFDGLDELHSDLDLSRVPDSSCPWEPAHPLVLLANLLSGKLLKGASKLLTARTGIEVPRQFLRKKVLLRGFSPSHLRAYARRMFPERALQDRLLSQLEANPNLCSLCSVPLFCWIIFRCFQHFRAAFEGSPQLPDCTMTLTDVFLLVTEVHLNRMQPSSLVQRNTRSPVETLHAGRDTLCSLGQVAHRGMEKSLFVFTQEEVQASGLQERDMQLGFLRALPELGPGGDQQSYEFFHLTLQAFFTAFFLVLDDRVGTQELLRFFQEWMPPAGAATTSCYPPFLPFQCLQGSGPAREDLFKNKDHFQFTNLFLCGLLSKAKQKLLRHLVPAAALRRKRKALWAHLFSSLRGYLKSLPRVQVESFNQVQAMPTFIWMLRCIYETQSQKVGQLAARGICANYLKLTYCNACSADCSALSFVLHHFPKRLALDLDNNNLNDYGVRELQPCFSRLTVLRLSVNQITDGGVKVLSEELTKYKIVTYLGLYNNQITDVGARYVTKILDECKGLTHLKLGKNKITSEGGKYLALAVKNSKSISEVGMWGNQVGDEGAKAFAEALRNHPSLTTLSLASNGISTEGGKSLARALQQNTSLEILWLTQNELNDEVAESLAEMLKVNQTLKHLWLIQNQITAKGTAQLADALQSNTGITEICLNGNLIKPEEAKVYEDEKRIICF
# HEK293 [8] = experiment: cells; conditions: Homo sapiens
# [9] = target: Induced myeloid leukemia cell differentiation protein Mcl-1 (Homo sapiens, UniProt Q07820); assay type: functional
# Sequence of Induced myeloid leukemia cell differentiation protein Mcl-1 (Q07820 whole entry, the tested form may be a part): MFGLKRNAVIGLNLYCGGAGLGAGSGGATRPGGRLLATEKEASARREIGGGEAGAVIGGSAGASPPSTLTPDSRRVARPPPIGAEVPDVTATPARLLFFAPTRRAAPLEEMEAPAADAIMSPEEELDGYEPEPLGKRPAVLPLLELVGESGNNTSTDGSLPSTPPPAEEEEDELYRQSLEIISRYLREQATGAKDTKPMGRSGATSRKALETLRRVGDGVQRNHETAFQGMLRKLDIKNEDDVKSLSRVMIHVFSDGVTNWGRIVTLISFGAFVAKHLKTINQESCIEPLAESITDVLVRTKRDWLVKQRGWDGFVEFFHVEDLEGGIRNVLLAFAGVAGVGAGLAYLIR
# [10] = target: T2, Carboxy-terminal domain RNA polymerase II polypeptide A small phosphatase 1 (Homo sapiens, UniProt Q9GZU7); experiment: inhibitors of CTDSP1, concentration-response testing, biochemical assay, absorbance-based, actives from ultra-high-throughput screening (AID 540297); assay type: functional
# T2 sequence (Q9GZU7 whole entry): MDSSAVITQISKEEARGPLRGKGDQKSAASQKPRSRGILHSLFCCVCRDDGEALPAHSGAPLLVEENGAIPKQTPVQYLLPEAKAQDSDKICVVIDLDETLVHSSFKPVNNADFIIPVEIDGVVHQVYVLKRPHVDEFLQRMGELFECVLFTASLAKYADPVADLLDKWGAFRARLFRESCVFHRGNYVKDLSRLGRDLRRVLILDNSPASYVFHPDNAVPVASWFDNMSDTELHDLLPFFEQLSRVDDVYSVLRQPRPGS
# [11] = target: Glyceraldehyde-3-phosphate dehydrogenase (Homo sapiens, UniProt P04406)
# Sequence of Glyceraldehyde-3-phosphate dehydrogenase (P04406 whole entry): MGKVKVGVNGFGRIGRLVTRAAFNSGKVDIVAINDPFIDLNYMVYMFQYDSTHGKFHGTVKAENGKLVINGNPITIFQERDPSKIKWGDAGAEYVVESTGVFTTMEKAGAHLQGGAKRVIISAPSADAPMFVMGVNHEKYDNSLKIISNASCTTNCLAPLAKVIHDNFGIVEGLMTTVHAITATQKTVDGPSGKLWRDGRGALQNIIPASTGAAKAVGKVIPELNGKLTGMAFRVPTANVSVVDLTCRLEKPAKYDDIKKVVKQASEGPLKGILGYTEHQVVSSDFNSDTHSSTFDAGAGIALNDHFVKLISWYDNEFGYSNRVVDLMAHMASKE
# [12] = target: T3, Alkaline phosphatase, tissue-nonspecific isozyme (Homo sapiens, UniProt P05186); experiment: human TNAP enzyme inhibitors, SAR follow-up, biochemical, luminescent, dose response (AID 1056)
# T3 sequence (P05186 whole entry): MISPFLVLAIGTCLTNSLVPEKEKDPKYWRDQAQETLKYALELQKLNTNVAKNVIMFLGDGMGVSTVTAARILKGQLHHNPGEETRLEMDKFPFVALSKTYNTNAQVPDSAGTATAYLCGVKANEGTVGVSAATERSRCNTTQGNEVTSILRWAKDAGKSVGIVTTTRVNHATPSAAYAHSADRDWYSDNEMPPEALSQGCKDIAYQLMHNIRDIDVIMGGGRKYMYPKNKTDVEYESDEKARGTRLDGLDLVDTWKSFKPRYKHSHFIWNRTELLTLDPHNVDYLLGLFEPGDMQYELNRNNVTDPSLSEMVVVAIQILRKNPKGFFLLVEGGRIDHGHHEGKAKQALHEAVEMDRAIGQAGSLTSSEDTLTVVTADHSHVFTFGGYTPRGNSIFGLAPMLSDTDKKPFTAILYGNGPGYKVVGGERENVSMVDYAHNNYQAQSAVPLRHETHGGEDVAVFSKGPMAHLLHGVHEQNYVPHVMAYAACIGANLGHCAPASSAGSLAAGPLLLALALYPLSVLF
# [13] = THP-1 cell cytotoxicity, dose response, cytotoxicity control for non-replicating M. tuberculosis project (AID 489025); assay type: functional
# cells = assay type: functional
# [14] = system: Streptococcus sp. 'group A'; experiment: growth inhibition of control SK(-) GAS strain, dose response, counter-screen for streptokinase expression inhibitor project, luminescence, kanamycin, BacTiterGlo, confirmation (AID 1900); assay type: functional, organism-based
# Streptokinase A = target: T4, Streptokinase A (Streptococcus pyogenes serotype M1, UniProt P10520); experiment: S. pyogenes streptokinase expression inhibitors, potency, dose response, plasminogen activation absorbance, OD405 (AID 1914); assay type: functional, Streptococcus pyogenes M1 GAS;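 note: secreted streptokinase activity via plasminogen activation per viability signal from cell pellet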
# T4 sequence (P10520 whole entry): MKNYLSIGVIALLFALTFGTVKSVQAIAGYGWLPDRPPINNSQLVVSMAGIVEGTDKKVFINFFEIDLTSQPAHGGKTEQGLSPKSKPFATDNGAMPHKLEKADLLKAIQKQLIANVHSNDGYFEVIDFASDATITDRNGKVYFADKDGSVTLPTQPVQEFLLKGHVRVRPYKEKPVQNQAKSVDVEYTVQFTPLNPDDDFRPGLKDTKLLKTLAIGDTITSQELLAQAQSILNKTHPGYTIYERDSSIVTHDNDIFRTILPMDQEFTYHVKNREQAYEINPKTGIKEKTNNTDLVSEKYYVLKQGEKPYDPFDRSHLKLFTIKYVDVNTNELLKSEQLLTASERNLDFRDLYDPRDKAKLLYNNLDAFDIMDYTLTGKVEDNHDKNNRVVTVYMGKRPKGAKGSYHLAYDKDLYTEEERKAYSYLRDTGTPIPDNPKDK
# Streptococcus = experiment: Group A Streptococcus viability loss, dose response, counter-screen for streptokinase expression inhibitor project, luminescence, BacTiterGlo (AID 1915); assay type: functional, organism-based;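 note: potency for reduction of bacterial viability or growth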
# Nonstructural protein 1 = Nonstructural protein 1 (Influenza A virus, UniProt Q194T2); assay type: functional, Influenza A virus (A/California/07/2009(H1N1))
# Sequence of Nonstructural protein 1 (Q194T2 whole entry): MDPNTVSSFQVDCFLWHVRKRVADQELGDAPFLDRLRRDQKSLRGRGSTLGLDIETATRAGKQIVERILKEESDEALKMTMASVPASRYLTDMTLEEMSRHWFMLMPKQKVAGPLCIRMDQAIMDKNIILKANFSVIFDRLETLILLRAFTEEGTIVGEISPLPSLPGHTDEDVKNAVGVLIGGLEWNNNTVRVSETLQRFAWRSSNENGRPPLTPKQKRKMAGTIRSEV
# [15] = target: FAD-linked sulfhydryl oxidase ALR (Homo sapiens, UniProt P55789); experiment: inhibitors of human ALR sulfhydryl oxidase, dose response, biochemical, H2O2 detection, luminescence, cherry-pick (AID 493248)
# Sequence of FAD-linked sulfhydryl oxidase ALR (P55789 whole entry): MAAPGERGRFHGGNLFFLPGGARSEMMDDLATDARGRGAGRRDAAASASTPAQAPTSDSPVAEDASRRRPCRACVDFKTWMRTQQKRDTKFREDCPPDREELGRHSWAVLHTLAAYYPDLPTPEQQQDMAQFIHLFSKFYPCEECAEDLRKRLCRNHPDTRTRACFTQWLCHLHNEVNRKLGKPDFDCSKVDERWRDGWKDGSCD
# [16] = target: T5, Polyadenylate-binding protein 1 (Homo sapiens, UniProt P11940); experiment: PABP1 MLLE–PAM2 interaction inhibitors, dose response, miRNA deadenylation inhibitor project, biochemical, fluorescence polarization, Cy5-PAM2 peptide, secondary (AID 602260); assay type: functional; conditions: read-out: IC50_Mean
# T5 sequence (P11940 whole entry): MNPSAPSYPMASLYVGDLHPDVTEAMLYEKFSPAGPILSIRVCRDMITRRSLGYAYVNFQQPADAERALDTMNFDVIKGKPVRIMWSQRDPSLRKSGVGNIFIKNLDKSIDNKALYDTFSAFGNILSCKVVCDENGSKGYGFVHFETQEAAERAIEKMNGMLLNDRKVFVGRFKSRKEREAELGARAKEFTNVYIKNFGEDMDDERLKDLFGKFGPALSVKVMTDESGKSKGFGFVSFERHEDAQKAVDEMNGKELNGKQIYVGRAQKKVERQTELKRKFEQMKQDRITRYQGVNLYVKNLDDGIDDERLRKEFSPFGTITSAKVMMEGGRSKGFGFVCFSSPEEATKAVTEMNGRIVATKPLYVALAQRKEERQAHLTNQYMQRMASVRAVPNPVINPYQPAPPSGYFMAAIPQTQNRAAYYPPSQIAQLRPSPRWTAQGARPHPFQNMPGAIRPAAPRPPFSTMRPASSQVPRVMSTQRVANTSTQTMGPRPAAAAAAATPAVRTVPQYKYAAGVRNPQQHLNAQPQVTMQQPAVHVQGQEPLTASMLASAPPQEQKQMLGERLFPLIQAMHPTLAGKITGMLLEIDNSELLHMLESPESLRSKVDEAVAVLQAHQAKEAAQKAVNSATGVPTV
# [17] = target: T5, Polyadenylate-binding protein 1; experiment: PABP1 MLLE–PAM2 binding inhibitor potency, dose response, biochemical, fluorescence polarization, FITC-PAM2 peptide (AID 602259); assay type: functional; conditions: read-out: IC50_Mean
# [18] = target: T6, Rac GTPase-activating protein 1 (Homo sapiens, UniProt Q9H0H5); experiment: MgcRacGAP GTPase-activating activity inhibitors, confirmation, biochemical, ADP Hunter fluorescence, primary and confirmatory (AID 624330); assay type: functional
# T6 sequence (Q9H0H5 whole entry): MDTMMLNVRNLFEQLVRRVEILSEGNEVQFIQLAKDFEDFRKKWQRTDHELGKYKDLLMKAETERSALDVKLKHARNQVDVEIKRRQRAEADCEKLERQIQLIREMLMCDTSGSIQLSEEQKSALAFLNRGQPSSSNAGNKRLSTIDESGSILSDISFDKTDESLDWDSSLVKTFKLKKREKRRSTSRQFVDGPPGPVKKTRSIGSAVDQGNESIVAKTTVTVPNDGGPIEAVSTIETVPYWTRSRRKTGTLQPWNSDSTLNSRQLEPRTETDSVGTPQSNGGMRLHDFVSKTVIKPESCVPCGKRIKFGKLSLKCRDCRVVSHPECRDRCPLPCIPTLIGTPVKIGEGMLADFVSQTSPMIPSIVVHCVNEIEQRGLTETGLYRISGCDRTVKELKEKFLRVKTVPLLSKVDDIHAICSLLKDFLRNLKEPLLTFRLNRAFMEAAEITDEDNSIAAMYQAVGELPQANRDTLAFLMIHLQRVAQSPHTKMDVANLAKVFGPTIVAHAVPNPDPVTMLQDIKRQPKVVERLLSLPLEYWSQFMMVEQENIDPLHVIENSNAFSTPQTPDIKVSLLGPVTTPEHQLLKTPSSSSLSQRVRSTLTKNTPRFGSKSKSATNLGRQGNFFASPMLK
# [19] = target: T7, Microphthalmia-associated transcription factor (Homo sapiens, UniProt O75030); experiment: TRPM1 promoter luciferase signal decrease, dose response, MITF inhibitor project, cell-based, SK-MEL-5, cherry-picked, set 3 (AID 493073); assay type: functional
# T7 sequence (O75030 whole entry): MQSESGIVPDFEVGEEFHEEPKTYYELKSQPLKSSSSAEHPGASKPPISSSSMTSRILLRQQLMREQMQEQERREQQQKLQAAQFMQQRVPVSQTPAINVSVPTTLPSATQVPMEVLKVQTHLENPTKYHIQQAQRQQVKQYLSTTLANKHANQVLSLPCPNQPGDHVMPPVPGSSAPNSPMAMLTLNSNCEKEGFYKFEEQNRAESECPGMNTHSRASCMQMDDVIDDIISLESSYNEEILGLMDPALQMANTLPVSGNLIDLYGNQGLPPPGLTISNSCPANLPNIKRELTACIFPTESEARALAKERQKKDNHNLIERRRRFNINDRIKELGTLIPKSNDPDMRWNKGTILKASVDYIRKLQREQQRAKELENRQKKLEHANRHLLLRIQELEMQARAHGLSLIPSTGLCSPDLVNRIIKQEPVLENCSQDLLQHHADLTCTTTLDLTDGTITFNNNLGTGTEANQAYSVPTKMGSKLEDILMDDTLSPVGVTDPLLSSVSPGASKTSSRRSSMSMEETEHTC
smiles,measurement,setting,value
O=C(Nc1sc2c(c1C(=O)O)CCCC2)c1ccccc1Cl,EC50,HEK293 [1],14.5 µM (active)
same,IC50,HEK293 [2],> 20 µM (inactive)
same,IC50,HEK293 [3],> 20 µM (inactive)
same,EC50,[4],> 20 µM (inactive)
same,IC50,HEK293 [5],18.5 µM (inactive)
same,IC50,HEK293 [6],> 20 µM (inactive)
same,IC50,Tumor necrosis factor,> 20 µM (inactive) and 12.9 µM (active)
same,IC50,[7],5.12 µM (active) and 4.45 µM (active)
same,IC50,HEK293 [8],> 20 µM (inactive)
O=C(CSc1nnc(COc2ccccc2Cl)o1)NC(=O)NCc1ccco1,IC50,[9],6.9 µM (active)
same,IC50,[10],5.93 µM (active)
O=S(=O)(Nc1cccnc1)c1ccccc1,IC50,[11],> 100 µM (not active)
same,IC50,[12],> 100 µM (inactive)
CCc1nnc(NC(=O)c2ccc(Cl)c(S(=O)(=O)N3CCc4ccccc4C3)c2)s1,EC50,HEK293 [1],2.1 µM (active)
same,IC50,HEK293 [2],5.23 µM (active)
same,IC50,HEK293 [3],17 µM (active)
same,EC50,[4],5.23 µM (active)
same,IC50,HEK293 [5],4.3 µM (active)
same,IC50,HEK293 [6],15.5 µM (active)
COc1ccc(OC)c(NC(=O)c2cnc3ccccc3c2)c1,IC50,[11],> 10 µM (inconclusive)
same,IC50,[12],> 10 µM (inactive)
N#Cc1ccc(-c2ccc(OCC(=O)Nc3cccnc3)cc2)cc1,CC50,[13],10.8 µM (active)
same,IC50,cells,1.63 µM (active)
COc1ccc(OC)c(NC(=O)c2cccnc2)c1,IC50,[11],> 100 µM (not active)
same,IC50,[12],> 100 µM (inactive)
O=C(Nc1ccccc1)c1n[nH]c2c1COc1ccccc1-2,IC50,[11],> 100 µM (not active)
same,IC50,[12],> 100 µM (inactive)
CC1Oc2cc3c(-c4c(O)cc(O)c5c(O)c6c(cc45)OC(C)C(C)C6=O)c(O)cc(O)c3c(O)c2C(=O)C1C (configuration not stated),EC50,[14],0.324 µM (active)
same,EC50,Streptokinase A,1.74 µM (active)
same,IC50,[9],2.15 µM (active)
same,EC50,Streptococcus,0.967 µM (active)
same,IC50,Nonstructural protein 1,29.4 µM (active)
CCOc1ccc(NC(=O)c2ccc(CN3CCc4ccccc43)cc2)cc1,IC50,Tumor necrosis factor,> 20 µM (inactive)
same,IC50,[7],> 20 µM (inactive)
same,IC50,HEK293 [8],> 20 µM (inactive)
Oc1ccc(/C=N/n2cc(-c3ccccc3)nc2S)cc1,IC50,[9],16.5 µM (active)
same,AC50,[15],0.86 µM (active)
same,IC50,[16],> 66 µM (inactive)
same,IC50,[17],> 66 µM (inactive)
same,IC50,[18],101 µM (active)
O=C(N/N=C/c1ccc([N+](=O)[O-])s1)c1ccccc1,CC50,[13],33.3 µM (active)
same,AC50,[19],2.29 µM (active)
same,IC50,cells,10.3 µM (active)
CCN(CC)c1ccc(/C=N/N2CCN(Cc3ccccc3)CC2)cc1,IC50,[9],11.5 µM (not active)
same,IC50,[18],78.7 µM (active)
Cc1nccn1-c1cccnc1,IC50,[11],> 100 µM (not active)
same,IC50,[12],> 100 µM (inactive)
